Publication PMC8779134 (2022)
*1 amine or outer side, *2 acyl side, *3 side chain or, on linkers, in order; H or OH if unused. Where a SMILES comes first, the peptide text is derived from it. Bridges are numbered along the chain shown (N, C = ends). [ ]: non-standard residue; d: D form. ξ: configuration not given here. ξTrp(2-yl) = O=C(C(Cc1c([*:3])[nH]c2ccccc12)N[*:1])[*:2]; X2 = O=C(C(CC(O)(CO)CO)N[*:1])[*:2]; X1 = CC(O)(CO)CC(N[*:1])C(=O)[*:2]; ξAsp(3ξ-OH) = NC(C(=O)O)C(O)C(=O)O; Hyp = O=C(O)[CH]1C[CH](O)CN1

Legend:
[1] = test system: Apt (DNA, aptamer) CATGCTTCCCCAGGGAGATGGAGGTCTTTTTGGTTGTTGGTGGGGGAATCTTTTGGTATTGAGGAACATG; test: AuNP colorimetric assay (A620/A520); details: Na+ 40 mM (NaCl added after binding), room temperature, 400 nM aptamer
[2] = test system: biotin-labeled Apt (DNA, aptamer) CATGCTTCCCCAGGGAGATGGAGGTCTTTTTGGTTGTTGGTGGGGGAATCTTTTGGTATTGAGGAACATG; test: magnetic bead ELISA, competition (A450); details: 37 °C, biotinylated complementary strand as competitor
[3] = test system: Apt-10 (DNA, aptamer) CCCCAGGGAGATGGAGGTCTTTTTGGTTGTTGGTGGGGGAATCTTTTGGTATTGAGGAA; test: ITC; details: ultrapure water, 25 °C; 500 μM aptamer into 41.6 μM α-amanitin; printed ΔG positive
[4] = test system: Apt-11 (DNA, aptamer) CTTCCCCAGGGAGATGGAGGTCTTTTTGGTTGTTGGTGGGGGAAT; test: ITC; details: ultrapure water, 25 °C; 500 μM aptamer into 41.6 μM α-amanitin; fit unphysical (N, ΔH)
[5] = test system: Apt (DNA, aptamer) CATGCTTCCCCAGGGAGATGGAGGTCTTTTTGGTTGTTGGTGGGGGAATCTTTTGGTATTGAGGAACATG; test: ITC; details: ultrapure water, 25 °C; 500 μM aptamer titrated into 41.6 μM α-amanitin
[6] = test system: Apt-8 (DNA, aptamer) CATGCTTCCCCAGGGAGATGGAGGTCTTTTTGGTTGTTGGTGGGGGAATCTTTTGGTA; test: AuNP colorimetric assay (A520); details: Na+ 40 mM (NaCl added after binding); room temperature; aptamer 0-1600 nM titrated into 1 μg/mL α-amanitin; apparent; table unit misprinted Nm
[7] = test system: Apt-2 (DNA, aptamer) CCAGGGAGATGGAGGTCTTTTTGGTTGTTGGTGGGGGAATCTTTTGGTATTGAGGAACATG; test: AuNP colorimetric assay (A520); details: Na+ 40 mM (NaCl added after binding); room temperature; aptamer 0-1600 nM titrated into 1 μg/mL α-amanitin; apparent; table unit misprinted Nm
[8] = test system: Apt-12 (DNA, aptamer) GGGAGATGGAGGTCTT; test: AuNP colorimetric assay (A520); details: Na+ 40 mM (NaCl added after binding); room temperature; 1 μg/mL α-amanitin; apparent; text b16 prints 132.1 ± 32.99 nM instead
[9] = test system: Apt-2 (DNA, aptamer) CCAGGGAGATGGAGGTCTTTTTGGTTGTTGGTGGGGGAATCTTTTGGTATTGAGGAACATG; test: ITC; details: ultrapure water, 25 °C; 500 μM aptamer titrated into 41.6 μM α-amanitin
[10] = test system: Apt-10 (DNA, aptamer) CCCCAGGGAGATGGAGGTCTTTTTGGTTGTTGGTGGGGGAATCTTTTGGTATTGAGGAA; test: AuNP colorimetric assay (A520); details: Na+ 40 mM (NaCl added after binding); room temperature; aptamer 0-1600 nM titrated into 1 μg/mL α-amanitin; apparent; table unit misprinted Nm
[11] = test system: Apt-11 (DNA, aptamer) CTTCCCCAGGGAGATGGAGGTCTTTTTGGTTGTTGGTGGGGGAAT; test: AuNP colorimetric assay (A520); details: Na+ 40 mM (NaCl added after binding); room temperature; aptamer 0-1600 nM titrated into 1 μg/mL α-amanitin; apparent; table unit misprinted Nm
[12] = test system: Apt (DNA, aptamer) CATGCTTCCCCAGGGAGATGGAGGTCTTTTTGGTTGTTGGTGGGGGAATCTTTTGGTATTGAGGAACATG; test: AuNP colorimetric assay (A520); details: Na+ 40 mM (NaCl added after binding); room temperature; aptamer 0-1600 nM titrated into 1 μg/mL α-amanitin; apparent; table unit misprinted Nm
[13] = test system: Apt-12 (DNA, aptamer) GGGAGATGGAGGTCTT; test: ITC; details: ultrapure water, 25 °C; 500 μM aptamer titrated into 41.6 μM α-amanitin
[14] = test system: Apt-8 (DNA, aptamer) CATGCTTCCCCAGGGAGATGGAGGTCTTTTTGGTTGTTGGTGGGGGAATCTTTTGGTA; test: ITC; details: ultrapure water, 25 °C; 500 μM aptamer titrated into 41.6 μM α-amanitin
[15] = highest concentration 500 ng/mL

With `CCCC[C@@H](C)[C@@H](OC(=O)C[C@@H](CC(=O)O)C(=O)O)[C@H](C[C@@H](C)C[C@H](O)CCCC[C@@H](O)C[C@H](O)[C@H](C)N)OC(=O)C[C@@H](CC(=O)O)C(=O)O` the binding ([1]; highest concentration 1 μg/mL) was “no”.

`CC[C@H](C)[C@@H]1NC(=O)CNC(=O)[C@@H]2Cc3c([nH]c4cc(O)ccc34)[S@](=O)C[C@H](NC(=O)CNC1=O)C(=O)N[C@@H](CC(=O)O)C(=O)N1C[C@H](O)C[C@H]1C(=O)N[C@@H]([C@@H](C)[C@@H](O)CO)C(=O)N2` was tested, and the binding ([1]; 1 μg/mL β-amanitin) was “yes” and the binding ([2]; 500 ng/mL) was “yes”.

In the case of `CC[C@H](C)[C@@H]1NC(=O)CNC(=O)[C@@H]2Cc3c([nH]c4cc(O)ccc34)[S@](=O)C[C@H](NC(=O)CNC1=O)C(=O)N[C@@H](CC(N)=O)C(=O)N1C[C@H](O)C[C@H]1C(=O)N[C@@H]([C@@H](C)[C@@H](O)CO)C(=O)N2`, the Kd [3] is reported as 68000 nM, the Kd [4] is reported as 54600 nM and the Kd [5] is reported as 3100 nM. The Kd [6] was 130.9 ± 31.1 nM, the Kd [7] was 37.9 ± 6.053 nM and the Kd [8] was 185.2 ± 60.87 nM. It also gave a Kd [9] of 46900 nM, a Kd [10] of 108.7 ± 18.23 nM and a Kd [11] of 184.4 ± 37.08 nM. The Kd [12] was 33.6 ± 3.928 nM, the binding ([2]; 0.1-6 μg/mL) was “yes” and the Kd [13] was 84700 nM. The Kd [14] was 11900 nM.

`CC[C@H](C)[C@@H]1NC(=O)CNC(=O)[C@@H]2Cc3c([nH]c4cc(O)ccc34)[S@](=O)C[C@H](NC(=O)CNC1=O)C(=O)N[C@@H](CC(N)=O)C(=O)N1C[C@H](O)C[C@H]1C(=O)N[C@@H]([C@@H](C)[C@H](C)O)C(=O)N2` was tested, and the binding [2, 15] was “no”.

In the case of `C[C@@H]1Cc2c(Cl)cc(C(=O)N[C@@H](Cc3ccccc3)C(=O)O)c(O)c2C(=O)O1`, the binding ([1]; highest concentration 1 μg/mL) is reported as “no”.

For `CC1NC(=O)C2CC(O)CN2C(=O)C2CSc3[nH]c4ccccc4c3CC(NC1=O)C(=O)NC(CC(C)(O)CO)C(=O)NC(C(C)C)C(=O)NC(C(O)C(=O)O)C(=O)N2` (centres unmarked) (cyclo([ξAsp(3ξ-OH)]C[Hyp]A[ξTrp(2-yl)][X1]V); thioether 2-5; configuration not given here), the binding [2, 15] was “no”.

With `CC1NC(=O)C2CC(O)CN2C(=O)C2CSc3[nH]c4ccccc4c3CC(NC1=O)C(=O)NC(CC(O)(CO)CO)C(=O)NC(C(C)C)C(=O)NC(C(O)C(=O)O)C(=O)N2` (centres unmarked) (cyclo([ξAsp(3ξ-OH)]C[Hyp]A[ξTrp(2-yl)][X2]V); thioether 2-5; configuration not given here) the binding [2, 15] was “no”.
